Measurements published in publication PMC6278313.
Substitutions are numbered along the chain they refer to. Read-outs that look alike come from different tables or passages of the source.

Legend:
[1] = system: all tested receptors, transporters, and binding sites; assay: NIMH-PDSP radioligand binding screen, whole panel; conditions: 10 μM; except the sites named for 17 and 27
COX-1 [2] = biological target: T1, COX-1 (Homo sapiens, UniProt P23219); assay: COX-1 inhibition, human whole blood (Thromboxane B2 EIA)
T1 sequence (P23219 24-599): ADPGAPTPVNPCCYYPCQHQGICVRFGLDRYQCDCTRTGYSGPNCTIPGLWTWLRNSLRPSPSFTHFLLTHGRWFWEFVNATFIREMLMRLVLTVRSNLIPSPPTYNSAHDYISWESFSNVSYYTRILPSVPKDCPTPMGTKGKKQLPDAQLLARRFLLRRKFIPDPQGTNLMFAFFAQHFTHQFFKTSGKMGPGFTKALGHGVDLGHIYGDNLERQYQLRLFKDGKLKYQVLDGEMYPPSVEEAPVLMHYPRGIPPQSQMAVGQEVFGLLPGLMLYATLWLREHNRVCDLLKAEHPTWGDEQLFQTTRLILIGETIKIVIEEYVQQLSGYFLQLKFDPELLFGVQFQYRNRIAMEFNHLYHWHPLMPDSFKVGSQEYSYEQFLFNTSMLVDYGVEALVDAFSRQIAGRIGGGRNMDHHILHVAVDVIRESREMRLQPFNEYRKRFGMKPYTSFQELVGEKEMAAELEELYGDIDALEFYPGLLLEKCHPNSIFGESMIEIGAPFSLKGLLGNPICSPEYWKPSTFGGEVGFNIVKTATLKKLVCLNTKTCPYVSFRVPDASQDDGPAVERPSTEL
Protocol: (§1) Thromboxane B2 EIA kit (COX-1) and Prostaglandin E2 EIA Kit (COX-2) were purchased from Cayman Chemicals, USA [45]. Blood from non-treated rhesus monkey and healthy human subjects was used with these ELISA kits to establish the inhibitory potencies (IC50’s) of test compounds for these enzymes [46]. Thromboxane, the product of COX-1, and prostaglandin E2, the product of COX2, were measured using 96-well plates and a UV spectrophotometer. The concentration-inhibition curves were fitted into a 4-parameter non-linear regression model in GraphPad Prism to calculate the IC50 of each test compound.

COX-2 [3] = biological target: T2, COX-2 (Homo sapiens, UniProt P35354); assay: COX-2 inhibition, human whole blood (Prostaglandin E2 EIA); type: cell-based
T2 construct: endogenous in cells; host or cells: fresh human whole blood
T2 sequence (P35354 18-604): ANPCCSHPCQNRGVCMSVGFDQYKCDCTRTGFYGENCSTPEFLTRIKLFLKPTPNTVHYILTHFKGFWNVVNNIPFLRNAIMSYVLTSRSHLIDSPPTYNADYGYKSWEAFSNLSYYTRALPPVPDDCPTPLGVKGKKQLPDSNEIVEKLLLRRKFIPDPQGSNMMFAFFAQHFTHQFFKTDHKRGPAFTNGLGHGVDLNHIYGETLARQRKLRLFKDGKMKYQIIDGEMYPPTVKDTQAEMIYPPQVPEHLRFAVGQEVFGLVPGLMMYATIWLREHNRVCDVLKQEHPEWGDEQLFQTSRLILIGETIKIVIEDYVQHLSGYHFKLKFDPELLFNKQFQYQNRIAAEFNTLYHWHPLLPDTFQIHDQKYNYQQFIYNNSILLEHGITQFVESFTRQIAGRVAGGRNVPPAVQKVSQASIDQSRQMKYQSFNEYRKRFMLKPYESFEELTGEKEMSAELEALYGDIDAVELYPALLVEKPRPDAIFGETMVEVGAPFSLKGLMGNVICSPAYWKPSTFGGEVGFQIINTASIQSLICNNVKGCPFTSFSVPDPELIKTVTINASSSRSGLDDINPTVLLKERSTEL

COX-1 [4] = biological target: T3, COX-1 (Macaca mulatta, UniProt F6S984); assay: COX-1 inhibition, monkey whole blood (Thromboxane B2 EIA)
T3 sequence (F6S984 25-599): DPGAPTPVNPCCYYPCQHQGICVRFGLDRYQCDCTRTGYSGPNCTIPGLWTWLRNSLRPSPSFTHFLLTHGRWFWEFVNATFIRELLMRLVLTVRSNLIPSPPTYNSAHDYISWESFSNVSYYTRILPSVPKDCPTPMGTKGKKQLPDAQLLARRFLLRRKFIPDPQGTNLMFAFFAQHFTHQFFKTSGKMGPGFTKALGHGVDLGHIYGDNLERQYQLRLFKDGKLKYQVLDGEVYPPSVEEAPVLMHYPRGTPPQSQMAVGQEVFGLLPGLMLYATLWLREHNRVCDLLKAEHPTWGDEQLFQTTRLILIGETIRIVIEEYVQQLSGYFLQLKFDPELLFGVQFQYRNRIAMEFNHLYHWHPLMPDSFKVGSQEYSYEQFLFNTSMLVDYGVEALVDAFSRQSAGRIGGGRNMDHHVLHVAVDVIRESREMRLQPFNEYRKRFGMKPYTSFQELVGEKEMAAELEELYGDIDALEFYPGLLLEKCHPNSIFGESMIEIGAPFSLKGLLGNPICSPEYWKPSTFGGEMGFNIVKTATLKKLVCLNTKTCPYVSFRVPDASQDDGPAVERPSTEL
Protocol: as §1

human COX-2 = conditions: cited from earlier work; for Selectivity vs. COX-1: human whole blood, COX-2 over COX-1
COX-1 [5] = biological target: T1, COX-1; set-up: endogenous in cells; host or cells: fresh human whole blood; conditions: footnote c; SE <15%; read-out: IC50 COX-1 Human WB (literature); cited from earlier work
COX-2 [6] = biological target: T4, COX-2 (Macaca mulatta, UniProt F7BWZ9); assay: COX-2 inhibition, monkey whole blood (Prostaglandin E2 EIA)
T4 sequence (F7BWZ9 18-604): T2 sequence (P35354 18-604) with H7Y, F49L, A101V, L150F, S163T, N191K, A208D, R211H, T363N, G570R
Protocol: as §1

benzodiazepine (BzP) = assay: NIMH-PDSP radioligand binding screen, benzodiazepine site; set-up: species or system rat; conditions: 10 μM
COX-2 [7] = conditions: cited from earlier work
COX-2 [8] = biological target: COX-2; set-up: method as in literature cited in the text (18-30); conditions: cited from earlier work
[9] = Measured logD of radioligands (n-octanol / sodium phosphate buffer); type: physicochemical; conditions: n-octanol / sodium phosphate buffer 0.1 M pH 7.4; γ-counter
Protocol: cLogD (at pH 7.4) values were computed with Pallas for Windows software version 3.8 in default mode (CompuDrug International; Bal Harbor, FL, USA). The logD values of [^11C]17, [^18F]20, and [d2-^18F]27 were measured by a method that we have described previously. The radioactivity contents in the n-octanol and sodium phosphate buffer (0.1 M; pH 7.4) phases were determined with a γ-counter.

[10] = mean ± SD, triplicate unless d n = 1, e n = 2, read-out: IC50 COX-2 Human WB
[11] = Table 1, human whole blood COX-2, SEM <15%, read-out: HWB IC50
[12] = footnote c, SE <15%, read-out: IC50 COX-2 Human WB (literature) (converted)
[13] = Chart 1, PET in vivo, ref literature cited in the text (18-30)
[14] = Chart 1, ref literature cited in the text (18-30)

With `CCOc1cc(NCc2cccs2)nc(-c2ccc(S(C)(=O)=O)cc2)n1` [Compound 18, 6-Ethoxy-2-(4-(methylsulfonyl)phenyl)-N-(thiophen-2-ylmethyl)pyrimidin-4-amine] the “inhibition of radioligand binding at all tested receptors, transporters, and binding sites” value (shortened to “inhibition … and binding sites”) [1] was “less than 50%”, the IC50 (COX-1 [2]) was greater than 10000 nM and the melting point was 169.2 to 170.4 °C.

In the case of `CCSc1cc(NCc2cccs2)nc(-c2ccc(S(C)(=O)=O)cc2)n1` [Compound 19, 6-Thioethyl-2-(4-(methylsulfonyl)phenyl)-N-(thiophen-2-ylmethyl)pyrimidin-4-amine], the IC50 (COX-2 [3]; [10]) is given as 3.52 ± 0.43 nM, the IC50 (COX-1 [4]) is given as greater than 1000 nM and the IC50 (human COX-2; [11]) is given as 1.2 nM. For the same compound, the IC50 (human COX-2; [12]) was 1.2 nM, the “Selectivity vs. COX-1” value (human COX-2) was greater than 8403 and the IC50 (COX-1 [2]) was greater than 1000 nM. For the same compound, the IC50 (COX-1 [5]) was greater than 10000 nM, the melting point was 160 to 162.1 °C and the IC50 (COX-2 [6]) was 52.3 ± 0.01 nM.

With `CS(=O)(=O)c1ccc(-c2nc(NCc3cccs3)cc(OCCF)n2)cc1` [Compound 20, 6-(2-Fluoroethoxy)-2-(4-(methylsulfonyl)phenyl)-N-(thiophen-2-ylmethyl)pyrimidin-4-amine] the IC50 (COX-2 [3]; [10]) was 1.9 nM, the melting point was 147.7 to 149.2 °C and the IC50 (COX-2 [6]) was 1.28 nM.

With `CSc1cc(NCc2cccs2)nc(-c2ccc(S(C)(=O)=O)cc2)n1` [Compound 21, 6-Thiomethyl-2-(4-(methylsulfonyl)phenyl)-N-(thiophen-2-ylmethyl)pyrimidin-4-amine] the IC50 (COX-2 [3]; [10]) was 2.65 ± 0.45 nM, the IC50 (COX-1 [4]) was greater than 1000 nM and the IC50 (COX-1 [2]) was greater than 1000 nM. The melting point was 159.1 to 160.4 °C and the IC50 (COX-2 [6]) was 4.83 ± 2.31 nM.

For `COc1cc(NCc2ccccc2)nc(-c2ccc(S(C)(=O)=O)cc2)n1` [Compound 22, N-Benzyl-6-methoxy-2-(4-(methylsulfonyl)phenyl)pyrimidin-4-amine], the IC50 (COX-2 [3]) is given as 7.35 ± 1.35 nM, the IC50 (COX-1 [4]) is given as greater than 1000 nM and the “Selectivity vs. COX-1” value (human COX-2) is given as >19,646. The IC50 (human COX-2; read-out: HWB IC50) was 5.1 nM, the IC50 (human COX-2; read-out: IC50 COX-2 Human WB (literature) (converted)) was 5.1 nM and the IC50 (COX-1 [2]) was greater than 1000 nM. For the same compound, the IC50 (COX-1 [5]) was greater than 100000 nM, the melting point was 133.4 to 134.6 °C and the IC50 (COX-2 [6]) was 14.6 ± 10.1 nM.

For `CS(=O)(=O)c1ccc(-c2nc(Cl)cc(NCc3ccccc3)n2)cc1` [Compound 23, N-Benzyl-6-chloro-2-(4-(methylsulfonyl)phenyl)pyrimidin-4-amine], the IC50 (COX-1 [5]) is given as greater than 100000 nM and the melting point is given as 130.4 to 131.4 °C.

In the case of `CS(=O)(=O)c1ccc(-c2nc(O)cc(NCc3ccccc3)n2)cc1` [Compound 24, 6-(Benzylamino)-2-(4-(methylsulfonyl)phenyl)pyrimidin-4-ol], the IC50 (COX-1 [4]) is given as greater than 1000 nM, the “inhibitory potency for COX-2” value (human COX-2) is given as “low inhibitory potency” and the IC50 (COX-1 [2]) is given as greater than 1000 nM. The IC50 (COX-1 [5]) was greater than 100000 nM, the melting point was 287.9 to 289.2 °C and the IC50 (COX-2 [6]) was greater than 1000 nM.

In the case of `CS(=O)(=O)c1ccc(-c2nc(Cl)cc(NCc3cccs3)n2)cc1` [Compound 25, 6-Chloro-2-(4-(methylsulfonyl)phenyl)-N-(thiophen-2-ylmethyl)pyrimidin-4-amine], the IC50 (human COX-2; [11]) is listed as 1.2 nM, the IC50 (human COX-2; [12]) is listed as 1.2 nM and the IC50 (COX-1 [2]) is listed as greater than 10000 nM. For the same compound, the IC50 (COX-1 [5]) was greater than 100000 nM and the melting point was 170 to 171.2 °C.

For `CS(=O)(=O)c1ccc(-c2nc(O)cc(NCc3cccs3)n2)cc1` [Compound 26, 2-(4-(Methylsulfonyl)phenyl)-6-(thiophen-2-yl-methylamino)pyrimidin-4-ol], the “inhibitory potency for COX-2” value (human COX-2) is listed as “low inhibitory potency”, the IC50 (COX-1 [5]) is listed as greater than 100000 nM and the melting point is listed as 261.7 to 263.2 °C.

For `CS(=O)(=O)c1ccc(-c2nc(NCc3cccs3)cc(OCF)n2)cc1` [Compound 27, 6-(2-Fluoromethoxy)-2-(4-(methylsulfonyl)phenyl)-N-(thiophen-2-yl-methyl)pyrimidin-4-amine], the IC50 (COX-2 [3]; [10]) was 2.26 ± 0.63 nM, the IC50 (COX-1 [4]) was greater than 1000 nM and the “inhibition … and binding sites” value [1] was “less than 50%”. For the same compound, the IC50 (COX-1 [2]) was greater than 1000 nM, the “inhibition of radioligand binding at benzodiazepine (BzP)” value (benzodiazepine (BzP)) was 50.8% and the IC50 (COX-2 [6]) was 2.26 ± 0.45 nM.

`CS(=O)(=O)c1ccc(-c2nc(F)cc(NCc3cccs3)n2)cc1` [Compound 29, 6-Fluoro-2-(4-(methylsulfonyl)phenyl)-N-(thiophen-2-ylmethyl)pyrimidin-4-amine] showed an IC50 (COX-2 [3]; [10]) of 2.5 nM and a melting point of 130.4 to 131.4 °C.

With `CN(Cc1cccs1)c1cc(Cl)nc(-c2ccc(S(C)(=O)=O)cc2)n1` [Compound 30, 6-Chloro-N-methyl-2-(4-(methylsulfonyl)phenyl)-N-(thiophen-2-ylmethyl)pyrimidin-4-amine] the IC50 (COX-2 [3]; [10]) was greater than 1000 nM and the “inhibition … and binding sites” value [1] was “less than 50%”.

In the case of `[11CH3]Oc1ccc(-c2cc(C(F)(F)F)nn2-c2ccc(S(N)(=O)=O)cc2)cc1` [[^11C]2], the brain entry (COX-2 [7]; [13]) is given as “Low brain penetration”.

For `[11CH3]S(=O)(=O)c1ccc(C2=C(c3ccccc3)C(=O)OC2)cc1` [[^11C]4, [^11C]rofecoxib], the brain entry (COX-2 [7]; in vivo) is listed as “Low brain entry”, the “brain entry (SUV)” value (COX-2 [7]; in vivo) is listed as 0.26 SUV and the “specific signal / specific binding in vivo” value (COX-2 [7]; in vivo) is listed as “No specific binding in rat inflammatory models”.

For `[11CH3]Oc1ccc(-c2cncn2-c2ccc(S(N)(=O)=O)cc2)cc1` [[^11C]6], the Ki (COX-2 [8]; [14]) is listed as 5 nM and the brain entry (COX-2 [7]; [13]) is listed as “Low brain uptake”.

In the case of `[11CH3]Oc1ccc(-c2c(-c3ccc(S(N)(=O)=O)cc3)[nH]c3ccccc23)cc1` [[^11C]7], the brain entry (COX-2 [7]; [13]) is given as “Low rat brain uptake”.

`CS(=O)(=O)c1ccc(-c2nc(NCc3cccs3)cc(O[11CH3])n2)cc1` [[^11C]17] showed a logD [9] of 3.74 ± 0.02.

For `Cc1ccc(-c2cc(C(F)(F)F)nn2-c2ccc(S(=O)(=O)Nc3cccc([18F])c3)cc2)cc1` [[^18F]3], the Ki (COX-2 [8]; [14]) is listed as 250 nM.

For `NS(=O)(=O)c1ccc(-c2c(-c3ccccc3)noc2C[18F])cc1` [[^18F]5], the Ki (COX-2 [8]) is given as 2 nM, the brain entry (COX-2 [7]; in vivo) is given as “Some brain entry” and the defluorination in vivo (COX-2 [7]; in vivo) is given as “Rapidly defluorinated”. For the same compound, the “specific signal / specific binding in vivo” value (COX-2 [7]; in vivo) was “No brain specific signal”.

`CS(=O)(=O)c1ccc(-c2nc(NCc3cccs3)cc(OCC[18F])n2)cc1` [[^18F]20] gave a logD [9] of 2.94 ± 0.32.

Work on `[2H]C([2H])([18F])Oc1cc(NCc2cccs2)nc(-c2ccc(S(C)(=O)=O)cc2)n1` [[d2-^18F]27] yielded a logD [9] of 3.7 ± 0.12.
